Among the data in publication PMC6934184, “Selective DNA-PKcs inhibition extends the therapeutic index of localized radiotherapy and chemotherapy” (The Journal of Clinical Investigation, 2019) are inhibition values, retold here.

In this assay the target is T1, KIT D816V (Homo sapiens, UniProt P10721, D816V).
T1 construct: purchased Thermo Fisher Scientific (Life Technologies) SelectScreen
As to the kind of experiment: SelectScreen LanthaScreen. The class given is binding. To be noted: read-out: % displacement. An outline of the steps:
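NU5455 was profiled across the SelectScreen Broad panel of kinase activity and binding assays. Z'LYTE reactions such as CSF1R ran at apparent Km ATP, while the Adapta CAMK1 assay used ATP listed as 10. Values are given as percent.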
A general note: TR-FRET usually uses a lanthanide donor and a delayed reading to cut background.

T1 sequence (P10721 26-976 D816V): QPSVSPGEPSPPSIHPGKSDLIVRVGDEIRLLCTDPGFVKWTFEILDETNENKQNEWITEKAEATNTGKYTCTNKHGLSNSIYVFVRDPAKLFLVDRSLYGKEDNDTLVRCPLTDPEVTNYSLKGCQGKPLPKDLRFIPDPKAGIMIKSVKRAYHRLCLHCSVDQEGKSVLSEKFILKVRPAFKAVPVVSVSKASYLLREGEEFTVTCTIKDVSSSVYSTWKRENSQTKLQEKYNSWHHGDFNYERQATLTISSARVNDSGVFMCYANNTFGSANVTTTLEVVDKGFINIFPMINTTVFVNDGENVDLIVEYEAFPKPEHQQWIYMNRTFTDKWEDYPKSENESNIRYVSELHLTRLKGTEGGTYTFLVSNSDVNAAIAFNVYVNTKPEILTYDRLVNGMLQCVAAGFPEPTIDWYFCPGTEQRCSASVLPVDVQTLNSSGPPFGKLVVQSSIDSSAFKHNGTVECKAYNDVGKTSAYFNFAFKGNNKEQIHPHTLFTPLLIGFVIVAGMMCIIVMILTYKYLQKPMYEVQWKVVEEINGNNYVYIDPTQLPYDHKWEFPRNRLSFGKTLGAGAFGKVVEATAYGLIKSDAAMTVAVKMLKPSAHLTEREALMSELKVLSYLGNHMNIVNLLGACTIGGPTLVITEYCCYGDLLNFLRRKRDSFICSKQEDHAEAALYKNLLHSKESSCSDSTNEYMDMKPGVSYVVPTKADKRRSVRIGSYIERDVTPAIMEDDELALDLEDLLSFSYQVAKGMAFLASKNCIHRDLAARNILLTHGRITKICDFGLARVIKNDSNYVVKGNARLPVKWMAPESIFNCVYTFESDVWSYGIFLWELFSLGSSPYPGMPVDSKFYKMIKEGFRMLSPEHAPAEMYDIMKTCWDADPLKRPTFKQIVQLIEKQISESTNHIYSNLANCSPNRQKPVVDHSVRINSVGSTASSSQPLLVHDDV

Regarding `CN(C(=O)CN1CCOCC1)c1ccc2sc3c(-c4cccc5c(=O)cc(N6CC7CCC(C6)O7)oc45)cccc3c2c1` [NU5455], the inhibition at 1 µM was determined as 0.9%.
